Experimental data reported in patent US4146622A, “Aziridinyl quinone anti-transplanted tumor agents” (priority 1977, dated 1979).
Values after ≈ are worked out from the molar mass of the structure shown. Values joined by “and” are separate entries in the source; they are usually repeats but may differ in a detail not shown here. Equal values may be shown once. “Also recorded” adds a separate entry of the source. Read-outs that look alike come from different tables or passages of the source.

How the values were obtained:
lymphoid leukemia L1210 [1] = test: Intraperitoneal (IP) lymphoid leukemia L1210 transplanted mouse tumor test; assay type: in vivo, murine; settings: for animals alive per 6 test animals on day of termination / survivors (number in parentheses) IP L1210: day 30; for ILS (%) IP L1210 / survivors (number in parentheses) IP L1210: Table XI; for ILS (%) IP L1210: outstanding activity; for survivors (number in parentheses) IP L1210: per 6 test animals; for maximum ILS: IP L1210; for antitumor activity: IP L1210, tetraaminobenzoquinone series (Table VIII); for cures: survivors on day 30, L1210
Text: ^(a) Day 1-9 treatment schedule (9 injections)
^(b) Day 1,5,9 treatment schedule (3 injections)
^(c) Day 1 only treatment schedule (1 injection)
^(f) Percentage increase in life span of treated animals [(treated
survival .div. control survival) × 100%] - 100%

[2] = test system: P388 lymphocytic leukemia; test: Intraperitoneal (IP) lymphocytic leukemia P388 transplanted mouse tumor test; assay type: in vivo, murine; settings: for OD (optimum dose) / ILS (percentage increase in life span) / animals alive per 6 test animals on day of termination: Table IX; for OD (optimum dose): IP P388, QD1-9; for ILS (percentage increase in life span) / animals alive per 6 test animals on day of termination: IP P388, QD1-9, at OD; for animals alive per 6 test animals on day of termination / survivors (number in parentheses) P388: day 30; for survivors (number in parentheses) P388: Table XI, per 6 test animals; for antitumor activity: IP P388; for cures: P388, 30 day survivors, QD1-9
B16 melanocarcinoma = test: Intraperitoneal B16 melanocarcinoma transplanted mouse tumor test; assay type: in vivo, murine; settings: for ILS (percentage increase in life span) / OD (optimum dose): Table IX; for ILS (percentage increase in life span): B16, QD1-9, at OD; for antitumor activity: B16 melanoma; for OD (optimum dose): B16, QD1-9; for ILS (%) B16: Table XI, outstanding activity
Description: ^b Ip tumor implantation, ip QD1-9 treatment schedule.
The L1210, P388 and B16 test systems described in Table II utilize intraperitoneal (IP) tumor implantation and IP drug treatment while the Lewis lung system employs subcutaneous tumor implantation and IP treatment.
Aqueous saline solution (0.9%) was used as the drug vehicle. Normally, five doses were employed per experiment with the top dose chosen to produce toxicity. The lower doses were 50% of each preceeding dose.
Consistent with NCI antitumor test protocols, intraperitoneal (IP) administration of the drug was employed with all five tumor systems investigated. Tumor implantation was IP in the systems designated IP leukemia L1210 and P388 as well as B16 melanoma.

lymphoid leukemia L1210 [3] = test: Intracerebral (IC) lymphoid leukemia L1210 test; assay type: in vivo, murine; settings: for antitumor activity: IC L1210; for OD (optimum dose): IC L1210, QD1-9; for ILS (%) IC L1210: Table XI, outstanding activity
Description: ^b Ic tumor implantation, ip QD1-9 treatment schedule.
The L1210, P388 and B16 test systems described in Table II utilize intraperitoneal (IP) tumor implantation and IP drug treatment while the Lewis lung system employs subcutaneous tumor implantation and IP treatment. All three CNS tumor models (Table III) use intracerebral (IC) tumor implantation and IP treatment.
Consistent with NCI antitumor test protocols, intraperitoneal (IP) administration of the drug was employed with all five tumor systems investigated. Tumor implantation was IP in the systems designated IP leukemia L1210 and P388 as well as B16 melanoma. Intracerebral (IC) tumor implantation was utilized in the IC L1210 and ependymoblastoma tumor systems.

ependymoblastoma = test: Intracerebral (IC) ependymoblastoma (EM) brain tumor test; assay type: in vivo, murine; settings: for antitumor activity: IC ependymoblastoma (EM); for OD (optimum dose) / ILS (percentage increase in life span) / animals alive per 6 test animals on day of termination: Table X, IC ependymoblastoma; for OD (optimum dose): QD1-5; for ILS (percentage increase in life span) / animals alive per 6 test animals on day of termination: QD1-5, at OD
Text: ^c Ic tumor implantation, ip QD1-5 treatment schedule.
^g Number of animals alive per six test animals on day of termination
of experiment (day 99 for expt 133 and day 60 for expt 136 and 144).
A third IC transplanted mouse tumor model, the ependymoblastoma system, was also studied. This system requires intracerebral implantation of a solid tumor fragment while the IC L1210 and IC P388 systems utilize IC inoculated ascites tumor fluid. All three use IP drug treatment however. […] Cures (survivors from the group of six mice on the last day of the experiment) are indicated. Experiments 136 and 144 were terminated on day 60. Since the number of cures was about the same, the differences in T/C values in these two experiments reflect differences in the life span of the two different sets of control animals. Experiment 133 was terminated on day 99 with a resulting higher activity value.
The hydrophilic dihydroxypropylamino compound (No. 39), which was curative in the IP L1210 and P388 leukemia systems, was active but gave a large spread in ILS values (53-186%). […] Again, its hydrophilic character may present transport problems in this IC tumor system.

[4] = Room temperature water solubility; assay type: physicochemical
Description: In the following examples, all melting points are uncorrected and were recorded on a Thomas-Hoover capillary melting point apparatus. Elemental analyses were performed by NIAMDD, NIH, Bethesda, Maryland. Fluoranil, ethyleneimine and 2l -methylethyleneimine were obtained commerically. […] New compounds were identified by nmr and ir spectroscopy. In the tetraamino derivatives, the methylene protons of the aziridine rings usually occurred as a singlet at δ2.0-2.2 in CDCl3 or DMSO-d6. This absorption appeared at δ2.40 (CDCl3) for compound 11. Carbonyl absorption frequencies (nujol mull) occurred in the range 1620-1640 cm^-1 for the tetraamino compounds. Satisfactory elemental analyses (+0.4% of calculated values) are indicated by elemental symbols in Table VII. Room temperature water solubilities were determined by the incremental addition (pipet) of water to a weighed amount of compound with shaking. The solubility values in Table VII must be considered as approximate.

[5] = test system: IP ascites tumor systems (leukemia L1210 and P388); test: IP ascites tumor systems (leukemia L1210 and P388); assay type: in vivo, murine
Description: The criterion for minimum activity, %ILS, is defined here as follows: Intraperitoneal and intracerebral leukemia L1210 and intraperitoneal leukemia P388, 25%; intraperitoneal B16 melanoma and intracerebral ependymoblastoma, 40%. Consistent with NCI antitumor test protocols, intraperitoneal (IP) administration of the drug was employed with all five tumor systems investigated. Tumor implantation was IP in the systems designated IP leukemia L1210 and P388 as well as B16 melanoma. Intracerebral (IC) tumor implantation was utilized in the IC L1210 and ependymoblastoma tumor systems.

[6] = Octanol/H2O partition coefficient (log P); assay type: physicochemical; settings: Table VII, octanol/H2O; for logP: octanol/water
Text: ^(b) Octanol/H2 O values determined by C. Hansch and M. Yamakawa

[7] = Table VIII, IP L1210, Day 1 only (1 injection)
[8] = Table VIII, IP L1210, Q4D(1,5,9), at OD
[9] = Table VIII, IP L1210, QD1-9 (9 injections)
[10] = Table VIII, IP L1210, QD1-9, at OD
[11] = Table X, IC L1210, QD1-9, at OD
[12] = water, Table VII, room temperature, approximate, read-out: Approx. H2O Sol.
[13] = Table VIII, IP L1210, Day 1 only, at OD
[14] = Table VIII, IP L1210, Q4D(1,5,9) (3 injections)

SMILES | OD (optimum dose) (lymphoid leukemia L1210 [1]; [7]) | OD (optimum dose) (lymphoid leukemia L1210 [1]; [9]) | ILS (%) IP L1210 (lymphoid leukemia L1210 [1]) [%] | survivors (number in parentheses) IP L1210 (lymphoid leukemia L1210 [1]) | OD (optimum dose) [2] | ILS (percentage increase in life span) [2] | animals alive per 6 test animals on day of termination [2] | survivors (number in parentheses) P388 [2] | ILS (percentage increase in life span) (B16 melanocarcinoma) | antitumor activity (lymphoid leukemia L1210 [3]) | OD (optimum dose) (lymphoid leukemia L1210 [3]; Table X) | ILS (percentage increase in life span) (lymphoid leukemia L1210 [3]; [11]) | OD (optimum dose) (ependymoblastoma) [mg/kg/injection] | ILS (percentage increase in life span) (ependymoblastoma) | solubility [4, 12] [mg/mL] | antitumor activity [5] | OD (optimum dose) (lymphoid leukemia L1210 [1]; [14]) | cures (lymphoid leukemia L1210 [1]) | antitumor activity [2] | cures [2] | other results
NC1=C(N2CC2)C(=O)C(N)=C(N2CC2)C1=O [Compound 33, 2,5-Dizairidinyl-3,6-diamino-1,4-benzoquinone] | 1.0 mg/kg/injection and 0.5 mg/kg/injection | 0.4 mg/kg/injection and 0.3 mg/kg/injection | 161 | 3 | 0.2 mg/kg/injection | 171% and 156% | 1 | 1 | 31% and 19% | most active; also recorded: significant activity | 0.3 mg/kg/injection | 60% and 59% | 0.2 | 215% and 177% | < 0.1 | active |  |  |  |  | ILS (percentage increase in life span) (lymphoid leukemia L1210 [1]; [8]): 161% and 124%; animals alive per 6 test animals on day of termination (lymphoid leukemia L1210 [1]; [8]): 3 and 2; ILS (percentage increase in life span) (lymphoid leukemia L1210 [1]; [10]): 115% and 100%; ILS (%) IC L1210 (lymphoid leukemia L1210 [3]): 60%; antitumor activity (ependymoblastoma): among the most active materials; animals alive per 6 test animals on day of termination (ependymoblastoma; day 60): 4 and 6; survivors (number in parentheses) EM (ependymoblastoma; Table XI, per 6 test animals, day 60): 6; solubility [4]: insoluble in any solvent; also recorded: exceptionally insoluble
O=C1C(NCCO)=C(N2CC2)C(=O)C(NCCO)=C1N1CC1 [Compound 38] | 1.5 mg/kg/injection | 0.7 mg/kg/injection | 205 | 2 | 0.4 mg/kg/injection | 175% and 160% | 3 and 2 | 3 | 61% and 51% | marginal | 0.75 mg/kg/injection | 57% and 48% | 1.5 | 83% and 70% | 2 (≈ 6.49 mM) | most active; also recorded: superior | 0.7 mg/kg/injection | produced cures | very active | multiple cures | maximum ILS (lymphoid leukemia L1210 [1]): > 200%; antitumor activity (lymphoid leukemia L1210 [1]): Excellent activity; ILS (percentage increase in life span) (lymphoid leukemia L1210 [1]; [13]): 175% and 119%; animals alive per 6 test animals on day of termination (lymphoid leukemia L1210 [1]; [13]): 5 and 3; ILS (percentage increase in life span) (lymphoid leukemia L1210 [1]; [8]): 131% and 70%; ILS (percentage increase in life span) (lymphoid leukemia L1210 [1]; [10]): 205% and 134%; animals alive per 6 test animals on day of termination (lymphoid leukemia L1210 [1]; [10]): 2 and 3; cures (lymphoid leukemia L1210 [1]; listed as hydroxyethylamino): Multiple cures; antitumor activity (B16 melanocarcinoma): active; OD (optimum dose) (B16 melanocarcinoma): 0.4 mg/kg/injection; ILS (%) B16 (B16 melanocarcinoma): 61%; ILS (%) IC L1210 (lymphoid leukemia L1210 [3]): 57%; logP [6]: -1.48
O=C1C(NCC(O)CO)=C(N2CC2)C(=O)C(NCC(O)CO)=C1N1CC1 (stereo not drawn) [Compound 39] | 4.0 mg/kg/injection and 2.0 mg/kg/injection | 4.0 mg/kg/injection and 2.0 mg/kg/injection | 206 | 5 | 4.0 mg/kg/injection | 143% and 141% | 6 and 4 | 6 | 50% and 42% | marginal | 4.0 mg/kg/injection | 41% and 43% |  | 99% and 53% | 30 (≈ 81.4 mM) | curative; also recorded: probably the most active compound | 4.0 mg/kg/injection and 8.0 mg/kg/injection | produced cures | very active | multiple cures | maximum ILS (lymphoid leukemia L1210 [1]): > 200%; antitumor activity (lymphoid leukemia L1210 [1]): Excellent activity; animals alive per 6 test animals on day of termination (lymphoid leukemia L1210 [1]; [13]): 4; cures (lymphoid leukemia L1210 [1]; listed as dihydroxypropylamino): Multiple cures; antitumor activity (B16 melanocarcinoma): active; OD (optimum dose) (B16 melanocarcinoma): 4.0 mg/kg/injection and 6.0 mg/kg/injection; ILS (%) B16 (B16 melanocarcinoma): 50%; ILS values (spread) (ependymoblastoma; EM, repeat tests): 53-186%; antitumor activity (ependymoblastoma): moderate to good EM activity; animals alive per 6 test animals on day of termination (ependymoblastoma; day 60): 1; log P [6]: -1.97
O=C1C(N2CCN(CCO)CC2)=C(N2CC2)C(=O)C(N2CCN(CCO)CC2)=C1N1CC1 [Compound 47] | 4.0 mg/kg/injection | 1.0 mg/kg/injection and 0.5 mg/kg/injection |  | 3 | 0.5 mg/kg/injection and 1.0 mg/kg/injection | 149% and 143% | 3 and 6 | 3 | 22% | marginal | 2.0 mg/kg/injection and 1.5 mg/kg/injection | 43% and 41% | 1.0 | 75% | 20 (≈ 44.8 mM) | most active; also recorded: superior | 4.0 mg/kg/injection and 2.0 mg/kg/injection | produced cures | very active | multiple cures | animals alive per 6 test animals on day of termination (lymphoid leukemia L1210 [1]; [8]): 3 and 4; T - C (average weight change of test group minus control) (lymphoid leukemia L1210 [1]; Table VIII, IP L1210, QD1-9, at OD, day 5): -1.7 grams; animals alive per 6 test animals on day of termination (lymphoid leukemia L1210 [1]; [10]): 1; T - C (average weight change of test group minus control) (lymphoid leukemia L1210 [3]; Table X, IC L1210, QD1-9, at OD, day 5): -1.4 grams; logP [6]: -0.75
